Patent US20240327392A1, “HETEROCYCLOALKYL-SUBSTITUTED POLYHETEROAZOLE DERIVATIVES AS MEDICAMENTS FOR TREATING AND/OR PREVENTING RS VIRUS INFECTIONS” (ALBIUS SCIENCES ALPHA PRIVATE LIMITED, priority 2021, published 2024)

test system: human RS virus A2 strain; experiment: In vitro test for anti-RS virus proliferation inhibitory activity (quantitative RT-PCR of RS virus RNA copy number in infected Vero cells); format: cell-based; details: 72 h; Vero cells infected with human RS virus A2 strain, 3 days of incubation, RS virus N gene RNA copy number by quantitative RT-PCR; read-out: Anti-RS virus Activity
Summary of the method: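 Vero cells infected with RSV A2 (1.7×10^4 TCID50/mL in inoculum mix) with compound in 10% FCS EMEM, 3 days at 37 °C, 5% CO2. Lysate viral N-gene RNA quantified by one-step SYBR qRT-PCR; copy number by comparative Ct relative to untreated infected cells.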

`CC(C)CS(=O)(=O)N1C[C@H](O)C[C@H]1c1nc(CCCc2ccccc2)no1` [Compound 3A, 3-(3-phenylpropyl)-5-[(2S,4R)-4-hydroxy-1-isobutylsulfonylpyrrolidin-2-yl]-1,2,4-oxadiazole] was tested. Which IC50 did it give?
The IC50 was over 50 µM.

`CS(=O)(=O)N1CCCC[C@H]1c1nc(CCCc2ccccc2)no1` [Compound 2C, 3-(3-phenylpropyl)-5-[(2S)-1-methanesulfonylpiperidin-2-yl]-1,2,4-oxadiazole] was tested. Which IC50 did it give?
Its IC50 is 10 to 50 µM.

With `O=S(=O)(c1ccccc1)N1CCC[C@H]1c1nc(CCCc2ccccc2)no1` [Compound 1D, 3-(3-phenylpropyl)-5-[(2S)-1-benzenesulfonylpyrrolidin-2-yl]-1,2,4-oxadiazole] as the compound, how does the IC50 read?
Its IC50 is 10 to 50 µM.

Which IC50 does the source give for `O=C(c1ccc2cc(C(=O)N3C[C@H](O)C[C@H]3c3nc(CCCc4ccccc4)no3)ccc2c1)N1C[C@H](O)C[C@H]1c1nc(CCCc2ccccc2)no1` [Compound 4-6, Naphthalene-2,6-diylbis(((2S,4R)-4-hydroxy-2-(3-(3-phenylpropyl)-1,2,4-oxadiazol-5-yl)pyrrolidin-1-yl)methanone)] here?
The IC50 was over 50 µM.

Which IC50 does the source give for `O=S(=O)(c1ccccc1)N1CCCC[C@H]1c1nc(CCCc2ccccc2)no1` [Compound 2D, 3-(3-phenylpropyl)-5-[(2S)-1-benzenesulfonylpiperidin-2-yl]-1,2,4-oxadiazole] here?
Its IC50 is under 10 µM.

same assay, conditions: 72 h; Vero cells infected with human RS virus A2 strain, 3 days of incubation, RS virus RNA copy number by quantitative RT-PCR; read-out: Anti-RS virus Activity

With `CCOC(=O)C1CCN(S(=O)(=O)N2CC3(CC3)C[C@H]2c2nc(CCCc3ccccc3)no2)CC1` [Compound 5AC, ethyl (S)-1-((6-(3-(3-phenylpropyl)-1,2,4-oxadiazole-5-yl)-5-azaspiro[2.4]heptan-5-yl)sulfonyl)piperidin-4-carboxylate] as the compound, how does the IC50 read?
The IC50 was 10 to 50 µM.

`O=S(=O)(C1CCCCC1)N1CC(CC2CCC2)CC1c1nc(CCCc2ccccc2)no1` (stereo not drawn) [Compound 6B, 3-(3-phenylpropyl)-5-(1-cyclohexylsulfonyl-4-cyclobutylmethylpyrrolidin-2-yl)-1,2,4-oxadiazole] was tested. Which IC50 did it give?
Its IC50 is under 10 µM.

How did the IC50 turn out when `CC(C)(C)OC(=O)N1CCCC[C@H]1c1nc(CC(=O)Nc2ccccc2)no1` [Compound 23-1, Tert-butyl (S)-2-(3-(2-oxo-2-(phenylamino)ethyl)-1,2,4-oxadiazol-5-yl)piperidine-1-carboxylate] was run?
The IC50 was 10 to 50 µM.

For `CC(C)CCN1CCC[C@H]1c1nc(CCCc2ccccc2)no1` [Compound 1T, (S)-5-(1-isopentylpyrrolidin-2-yl)-3-(3-phenylpropyl)-1,2,4-oxadiazole], which IC50 is on record?
The IC50 was under 10 µM.

With `COc1ccc(CCCc2noc([C@@H]3CCCCN3S(=O)(=O)C3CCCCC3)n2)cc1OC` [Compound 22B, (S)-5-(1-(cyclohexylsulfonyl)piperidin-2-yl)-3-(3-(3,4-dimethoxyphenyl)propyl)-1,2,4-oxadiazole] as the compound, how does the IC50 read?
The IC50 was under 10 µM.

With `O=S(=O)(Cc1ccccc1)N1CC2(CC2)C[C@H]1c1nc(CCCc2ccccc2)no1` [Compound 5E, 3-(3-Phenylpropyl)-5-{(6S)-5-benzylsulfonyl-5-azaspiro[2.4]hept-6-yl}-1,2,4-oxadiazole] as the compound, how does the IC50 read?
Its IC50 is 10 to 50 µM.

With `CC(C)CS(=O)(=O)N1[C@@H]2CC[C@@H](C2)[C@H]1c1nc(CCc2ccccc2)no1` [Compound 14A, 5-((1R,3S,4S)-2-(isobutylsulfonyl)-2-azabicyclo[2.2.1]heptan-3-yl)-3-phenethyl-1,2,4-oxadiazole] as the compound, how does the IC50 read?
The IC50 was 10 to 50 µM.

`CC(C)(C)OC(=O)N1CC(CS(=O)(=O)N2CC3(CC3)C[C@H]2c2nc(CCCc3ccccc3)no2)C1` [Compound 5AM, tert-buthyl (S)-3-(((6-(3-(3-phenylpropyl)-1,2,4-oxadiazole-5-yl)-5-azaspiro[2.4]heptan-5-yl)sulfonyl)methyl)azetidin-1-carboxylate] was tested. Which IC50 did it give?
Its IC50 is under 10 µM.

`CC(C)(C)OC(=O)N1CCC(CS(=O)(=O)N2C[C@H](c3ccccc3)C[C@H]2c2nc(CCCc3ccccc3)no2)CC1` [Compound 7AN, tert-buthyl 4-((((2S,4S)-4-phenyl2-(3-(3-phenylpropyl)-1,2,4-oxadiazole-5-yl)pyrrolidin-1-yl)sulfonyl)methyl)piperidin-1-carboxylate] was tested. Which IC50 did it give?
Its IC50 is under 10 µM.

How did the IC50 turn out when `Fc1ccc(CN2CCC[C@H]2c2nc(CCCc3ccccc3)no2)cc1` [Compound 1V, (S)-5-(1-(4-fluorobenzyl)pyrrolidin-2-yl)-3-(3-phenylpropyl)-1,2,4-oxadiazole] was run?
The IC50 was under 10 µM.

Which IC50 does the source give for `CC(C)(C)OC(=O)N1[C@@H]2CC[C@@H](C2)[C@H]1c1nnc(CCc2ccncc2)[nH]1` [Compound 25-1, Tert-butyl (1R,3S,4S)-3-(5-(2-(pyridin-4-yl)ethyl)-4H-1,2,4-triazol-3-yl)-2-azabicyclo[2.2.1]heptane-2-carboxylate] here?
The IC50 was 10 to 50 µM.

`CC(C)(C)OC(=O)N1CCC(S(=O)(=O)N2CC(CC3CCC3)CC2c2nc(CCCc3ccccc3)no2)CC1` (stereo not drawn) [Compound 6AO] was tested. Which IC50 did it give?
Its IC50 is over 50 µM.

How did the IC50 turn out when `CC(C)(C)OC(=O)N1CCCC[C@H]1c1noc(CCc2ccccc2)n1` [Compound C2-16-1, Tert-butyl (S)-2-(5-phenethyl-1,2,4-oxadiazol-3-yl) piperidine-1-carboxylate] was run?
The IC50 was 10 to 50 µM.

How did the IC50 turn out when `O=C(c1ccccc1)N1CCC[C@H]1c1nc(CCCc2ccccc2)no1` [Compound 1S, (S)-Phenyl(2-(3-(3-phenylpropyl)-1,2,4-oxadiazol-5-yl)pyrrolidin-1-yl)methanone] was run?
Its IC50 is under 10 µM.

For `CC(C)(C)OC(=O)N1[C@@H]2CC[C@@H](C2)[C@H]1c1nnc(Cc2cc3ccccc3[nH]2)[nH]1` [Compound 28-1, Tert-butyl (1R,3S,4S)-3-(5-((1H-indol-2-yl)methyl)-4H-1,2,4-triazol-3-yl)-2-azabicyclo[2.2.1]heptane-2-carboxylate], which IC50 is on record?
The IC50 was 10 to 50 µM.

How did the IC50 turn out when `CC(C)(C)NC(=O)N1C[C@H]2CC[C@]1(c1nc(CCc3ccncc3)no1)CC2` [Compound 13H, (1s, 4s)-N-(tert-butyl)-1-(3-(2-(pyridin-4-yl)ethyl)-1,2,4-oxadiazol-5-yl)-2-azabicyclo[2.2.2]octane-2-carboxamide] was run?
Its IC50 is over 50 µM.

How did the IC50 turn out when `COc1ccc(CCCc2noc([C@@H]3CCCCN3C(=O)OC(C)(C)C)n2)cc1OC` [Compound 22-1, Tert-butyl (S)-2-(3-(3-(3,4-dimethoxyphenyl)propyl)-1,2,4-oxadiazol-5-yl)piperidine-1-carboxylate] was run?
The IC50 was under 10 µM.

With `O=C(NCc1noc([C@@H]2C[C@@H](c3ccccc3)CN2S(=O)(=O)c2ccc(F)cc2)n1)c1cnc2ccccc2c1` [Compound 46AJ, N-((5-((2S,4S)-1-((4-fluorophenyl)sulfonyl)-4-phenylpyrrolidin-2-yl)-1,2,4-oxadiazol-3-yl)methyl)quinoline-3-carboxamide] as the compound, how does the IC50 read?
The IC50 was 10 to 50 µM.

With `Cc1oc([C@@H]2CCCCN2S(=O)(=O)C2CCCCC2)nc1C(=O)NCc1ccccc1` [Compound 34B, (S)—N-Benzyl-2-(1-(cyclohexylsulfonyl)piperidin-2-yl)-5-methyloxazole-4-carboxamide] as the compound, how does the IC50 read?
The IC50 was 10 to 50 µM.

`O=C(c1ccccc1)N1CCCC[C@H]1c1nc(CCCc2ccccc2)no1` [Compound 2S, (S)-Phenyl(2-(3-(3-phenylpropyl)-1,2,4-oxadiazol-5-yl)piperidin-1-yl)methanone] was tested. Which IC50 did it give?
The IC50 was under 10 µM.

How did the IC50 turn out when `CC(C)CC(=O)N1CCCC[C@H]1c1nc(CCCc2ccccc2)no1` [Compound 2Q, (S)-3-Methyl-1-(2-(3-(3-phenylpropyl)-1,2,4-oxadiazol-5-yl)piperidin-1-yl)butan-1-one] was run?
Its IC50 is under 10 µM.

Which IC50 does the source give for `CC(C)COC(=O)N1CCC[C@H]1c1nc(CCCc2ccccc2)no1` [Compound 1I, Isobutyl (S)-2-(3-(3-phenylpropyl)-1,2,4-oxadiazol-5-yl) pyrrolidine-1-carboxylate] here?
The IC50 was under 10 µM.

With `CC(C)(C)OC(=O)N1CCCC[C@H]1c1nc(CCc2ccccc2)no1` [Compound 10-1, 3-(3-phenylethyl)-5-[(2S)-1-tert-butoxycarbonylpiperidin-2-yl]-1,2,4-oxadiazole] as the compound, how does the IC50 read?
Its IC50 is 10 to 50 µM.

`CC(C)CS(=O)(=O)N1CCCC[C@H]1c1nc(CCc2ccncc2)no1` [Compound 12A, (S)-5-(1-(Isobutylsulfonyl)piperidin-2-yl)-3-(2-(pyridin-4-yl)ethyl)-1,2,4-oxadiazole] was tested. Which IC50 did it give?
Its IC50 is under 10 µM.

How did the IC50 turn out when `O=C(OCc1ccccc1)N1CCC[C@H]1c1nc(CCCc2ccccc2)no1` [Compound 1J, Benzyl (S)-2-(3-(3-phenylpropyl)-1,2,4-oxadiazol-5-yl) pyrrolidine-1-carboxylate] was run?
The IC50 was under 10 µM.

Which IC50 does the source give for `O=C(C1CCCCC1)N1CCCC[C@H]1c1nc(CCCc2ccccc2)no1` [Compound 2Y, (S)-cyclohexyl(2-(3-(3-phenylpropyl)-1,2,4-oxadiazol-5-yl)piperidin-1-yl)methanone] here?
Its IC50 is under 10 µM.

`CS(=O)(=O)N1CC2(CC2)C[C@H]1c1nc(CCCc2ccccc2)no1` [Compound 5C, 3-(3-phenylpropyl)-5-{(6S)-5-methanesulfonyl-5-azaspiro[2.4]hept-6-yl}-1,2,4-oxadiazole] was tested. Which IC50 did it give?
The IC50 was over 50 µM.

Which IC50 does the source give for `O=C(N1CC2(CC2)C[C@H]1c1nc(CCCc2ccccc2)no1)C(F)(F)F` [5D′, 3-(3-Phenylpropyl)-5-{(6S)-5-trifluoroacetyl-5-azaspiro[2.4]hept-6-yl}-1,2,4-oxadiazole] here?
Its IC50 is under 10 µM.

With `CC(C)(C)OC(=O)N1[C@@H]2CC[C@@H](C2)[C@H]1c1nc(CCc2ccccc2)no1` [Compound 14-1, Tert-butyl (1R,3S,4S)-3-(3-phenethyl-1,2,4-oxadiazol-5-yl)-2-azabicyclo[2.2.1]heptane-2-carboxylate] as the compound, how does the IC50 read?
Its IC50 is under 10 µM.

`O=C(OC1CCCC1)N1CCC[C@H]1c1nc(CCCc2ccccc2)no1` [Compound 1O, Cyclopentyl (S)-2-(3-(3-phenylpropyl)-1,2,4-oxadiazol-5-yl) pyrrolidine-1-carboxylate] was tested. Which IC50 did it give?
The IC50 was 10 to 50 µM.

Which IC50 does the source give for `[O-][S+](N1CCCC[C@H]1c1nc(CCCc2ccccc2)no1)C12CC3CC(CC(C3)C1)C2` (stereo partly drawn) [2AF′, 5-((2S)-1-((adamantan-1-yl)sulfinyl)piperidin-2-yl)-3-(3-phenylpropyl)-1,2,4-oxadiazole] here?
Its IC50 is 10 to 50 µM.
